From the NIST ThermoML archive (doi:10.1021/je2009413)

Columns and labels:
[1] = osmotic coefficient (dimensionless); mn = molality of the nth substance listed, in mol/kg; details: 298.15 K, Liquid, isopiestic method
[2] = mean ionic activity coefficient (dimensionless); mn = molality of the nth substance listed, in mol/kg; details: 298.15 K, Liquid, Isopiestic method

CCCC[N+](CC)(CC)CCCC.[I-] [N-butyl-N,N-diethylbutan-1-aminium iodide] + O
Details	mean ionic activity coefficient, [2]	osmotic coefficient, [1]
m1 = 0.0372	0.7064	0.828
m1 = 0.0441	0.6798	0.813
m1 = 0.0491	0.6621	0.805
m1 = 0.0634	0.6174	0.782
m1 = 0.0706	0.5976	0.772
m1 = 0.0749	0.5865	0.768
m1 = 0.0839	0.5647	0.756
m1 = 0.0992	0.5317	0.738
m1 = 0.1069	0.5166	0.731
m1 = 0.1133	0.5048	0.723
m1 = 0.1221	0.4896	0.716
m1 = 0.1938	0.3939	0.654
m1 = 0.1969	0.3912	0.649
m1 = 0.2338	0.3566	0.625
m1 = 0.2705	0.3248	0.61
m1 = 0.2758	0.3213	0.605
m1 = 0.3292	0.2868	0.581
m1 = 0.3751	0.2634	0.559
m1 = 0.4189	0.2415	0.546
m1 = 0.4343	0.2351	0.541
m1 = 0.4687	0.2213	0.532
m1 = 0.5317	0.2037	0.508
m1 = 0.58	0.1904	0.497
m1 = 0.6463	0.1748	0.481
m1 = 0.7082	0.166	0.463
m1 = 0.758	0.1556	0.456
m1 = 0.7808	0.1521	0.451
m1 = 0.9199	0.1348	0.426
m1 = 0.9899	0.1266	0.416
m1 = 1.1	0.1171	0.401
m1 = 1.178	0.1131	0.389
m1 = 1.324	0.1042	0.375
m1 = 1.426	0.0988	0.371
m1 = 1.548	0.0944	0.366
m1 = 1.66	0.0909	0.362
m1 = 1.76	0.0885	0.363
m1 = 1.926	0.0852	0.366
m1 = 2.042	0.0821	0.377
m1 = 2.078	0.0809	0.383
m1 = 2.108	0.0807	0.384
m1 = 2.136	0.0802	0.386
m1 = 2.179	0.0789	0.4
m1 = 2.218	0.0782	0.405
m1 = 2.389	0.0748	0.434
